Assay [1] concerns SK-MEL-28 melanoma cell line. In words: MTT cell proliferation assay in melanoma cells. The format is cell-based, human. Particulars: Homo sapiens, SK-MEL-28, 144 h, SK-MEL-28, after 6 days of treatment; read-out: Half-maximal inhibitory concentration (IC50). The text has this: Antifolate compounds are designed to inhibit DHFR and act specifically during DNA and RNA synthesis, making them more toxic to rapidly dividing cells. Recent evidences indicate that tea-catechins and derived compounds could inhibit DHFR and block the folate cycle in cancer cells. Although inhibition of DHFR by these compounds could be a plausible explanation for their antifolate activity, the possibility of these compounds targeting (folate)-enzymes other than DHFR could not be excluded. To determine whether these newly synthetized compounds disrupt the folate cycle in cell culture, we studied their antiproliferative activity in the melanoma cell line SK-MEL-28 (Table 3). Concentration- and time-dependent effects were analyzed using the colorimetric 4,5-(3)-dimethylthiazol-2-yl)-2,5-diphenyltetrazolium bromide (MTT) method.
The human melanoma cell line SK-MEL-28 was obtained from American Type Culture Collection (ATCC, Manassas, VA, USA) and was maintained in Eagles’s Minimum Essential Medium (EMEM) supplemented with 10% (v/v) FBS and antibiotics at 37 °C in a humidified atmosphere containing 7.5% CO2. Cell viability was evaluated using the MTT cell proliferation assay. Cells were evaluated for apoptosis using a cell death detection ELISA (Cell Death Detection ELISAPLUS, Roche Diagnostics, Barcelona, Spain). The principle of this test is the detection of mono- and oligonucleosomes in the cytoplasmic fractions of cell lysates using biotinylated anti-histone and peroxidase-coupled anti-DNA antibodies. The amount of nucleosomes is photometrically quantified at 405 nm by the peroxidase activity retained in the immunocomplexes. Apoptosis was defined as the specific enrichment of mono- and oligonucleosomes in the cytoplasm and was calculated by dividing the absorbance of treated samples with the absorbance of untreated samples after correcting for the number of cells. The induction of apoptosis in each melanoma cell line after a 7 h treatment with 2 μM staurosporin (100% apoptotic cells) was used to calculate the number of apoptotic cells. For these assays, cells were plated in a 96-well plate at a density of 1000–2000 cells/well. Compounds were added once at the beginning of the experiments.
(In general: Tetrazolium dyes change colour on reduction, which living cells bring about.)

Assay [2] relates to SK-MEL-28 melanoma cells. As to the kind of experiment: Apoptosis assay (cell death detection ELISA) with or without site markers. In kind it is cell-based, human. Particulars: SK-MEL-28, warfarin 10 µM. The text has this: Serum is commonly used as a supplement in cell culture media. It supports cell growth and product formation by providing a broad spectrum of macromolecules, attachment factors, nutrients, and hormone and growth factors. The most commonly used animal serum supplement is foetal bovine serum, FBS (alternatively called foetal calf serum—FCS). Because BSA is a major component of FBS, the in vitro activity of catechins on tumour cells might be affected by their interaction with BSA. The effect of albumin binding on the biological activity of polyphenols is unclear. Does the bound ligand have some biological activity or does the polyphenol have to be in the free form to be active? To answer this question and to determine whether BSA-catechin interactions increase or decrease catechin anti-tumour activity, the proapoptotic activity of TMCG on SK-MEL-28 melanoma cells was probed in the presence of warfarin or ibuprofen [Figure 5(b)]. […] Because the binding of catechins to BSA seems to control drug availability, the lower affinity of TMCG and TMECG for serum albumins, with respect to natural tea catechins, might contribute to the high in vivo anti-tumour activity of these methylated synthetic catechins. […]
The human melanoma cell line SK-MEL-28 was obtained from American Type Culture Collection (ATCC, Manassas, VA, USA) and was maintained in Eagles’s Minimum Essential Medium (EMEM) supplemented with 10% (v/v) FBS and antibiotics at 37 °C in a humidified atmosphere containing 7.5% CO2. Cell viability was evaluated using the MTT cell proliferation assay. Cells were evaluated for apoptosis using a cell death detection ELISA (Cell Death Detection ELISAPLUS, Roche Diagnostics, Barcelona, Spain). […] The amount of nucleosomes is photometrically quantified at 405 nm by the peroxidase activity retained in the immunocomplexes. Apoptosis was defined as the specific enrichment of mono- and oligonucleosomes in the cytoplasm and was calculated by dividing the absorbance of treated samples with the absorbance of untreated samples after correcting for the number of cells. […]

For `COc1cc(C(=O)O[C@H]2Cc3c(O)cc(O)cc3O[C@@H]2c2ccc(O)c(O)c2)cc(OC)c1OC` [TMCG], the IC50 in assay [1] was determined as 1500 ± 400 nM. The “Proapoptotic activity of TMCG in the presence of warfarin” value in assay [2] is given as “significantly increased”.

Source of the values: PMC6270263, “Factors Influencing the Antifolate Activity of Synthetic Tea-Derived Catechins” (Molecules, 2013).
